Measured values as given in patent US11472778B2, “Hepatitis C virus NS3/4A protease inhibitors” (priority 2017, dated 2022).
Like-named read-outs stand apart in the source and are kept apart here.

How the values were obtained:
[1] = tested on: HCV replicon D168V variant in Huh7 cells; experiment: microbe, parasite or virus in culture; type: cell-based, Hepatitis C virus; conditions: for Replicon EC50 (Fold change) D168V: relative to WT
How it was run: (§1)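 Variants made by site-directed mutagenesis in a Con1 (genotype 1b) luciferase reporter replicon carrying H77 (genotype 1a) NS3. Replicon RNA electroporated into Huh7 cells; luciferase (RLU) measured 96 h post-electroporation across increasing protease inhibitor concentrations.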

[2] = target: GT1a R155K NS3/4A protease; type: biochemical, Hepatitis C virus; conditions: fold change in Ki, R155K relative to WT
Method: (§2) For each assay, 2 nM of NS3/4A protease (GT1a, R155K and D168A) was pre-incubated at room temperature for 1 h with increasing concentration of inhibitors in assay buffer (50 mM Tris, 5% glycerol, 10 mM DTT, 0.6 mM LDAO, and 4% dimethyl sulfoxide, pH 7.5). Inhibition assays were performed in non-binding surface 96-well black half-area plates (Corning) in a reaction volume of 60 μL. […] Three independent data sets were collected for each inhibitor with each protease construct. […] Gibbs free energy of binding was calculated using the following equation: ΔG=RTlnKi

[3] = target: GT1a R155K NS3/4A protease (UniProt P27958, R1181K, species not given); type: biochemical, Hepatitis C virus
Method: as §2

[4] = tested on: HCV replicon D168A variant in Huh7 cells; experiment: microbe, parasite or virus in culture; type: cell-based, Hepatitis C virus; conditions: for EC50: Hepatitis C virus, Huh-7, read-out: Replicon EC50 (nM) D168A, Table 9; for Replicon EC50 (Fold change) D168A: Table 9, relative to WT
How it was run: as §1

[5] = tested on: HCV replicon R155K variant in Huh7 cells; experiment: microbe, parasite or virus in culture; type: cell-based, Hepatitis C virus; conditions: for EC50: Hepatitis C virus, Huh-7, read-out: Replicon EC50 (nM) R155K, Table 9; for Replicon EC50 (Fold change) R155K: Table 9, relative to WT
How it was run: as §1

[6] = tested on: HCV replicon A156T variant in Huh7 cells; experiment: microbe, parasite or virus in culture; type: cell-based, Hepatitis C virus; conditions: for EC50: Hepatitis C virus, Huh-7, read-out: Replicon EC50 (nM) A156T, Table 9; for Replicon EC50 (Fold change) A156T: Table 9, relative to WT
How it was run: as §1

[7] = tested on: wild-type HCV replicon in Huh7 cells; experiment: Cell-based drug susceptibility (replicon) assay, wild-type; conditions: Hepatitis C virus, Huh-7, Table 9; read-out: Replicon EC50 (nM) WT
How it was run: as §1

[8] = target: GT1a D168A NS3/4A protease; type: biochemical, Hepatitis C virus; conditions: fold change in Ki, D168A relative to WT
How it was run: (§3)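 NS3/4A protease (2 nM; wild-type GT1a or D168A) pre-incubated 1 h at room temperature with increasing inhibitor in 50 mM Tris pH 7.5, 5% glycerol, 10 mM DTT, 0.6 mM LDAO, 4% DMSO. Ki from three independent data sets per construct; ΔG=RTlnKi.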

[9] = target: T1, GT1a D168A NS3/4A protease (UniProt P27958, D1194A, species not given); type: biochemical, Hepatitis C virus
T1 construct: rows headed: Ki (nM) D168A; Ki D168A; other: D168A variant
How it was run: as §3

[10] = target: T2, wild-type GT1a NS3/4A protease (UniProt P27958); type: biochemical, Hepatitis C virus
T2 construct: Ki WT; other: wild-type HCV NS3/4A protease
How it was run: as §3

[11] = rcm bond, 15-membered ring, Zhan 1b, 1,2-DCE, 70.0 °C
[12] = Hepatitis C virus, Huh-7, read-out: Replicon EC50 (nM) D168V, Table 9
[13] = read-out: Ki (nM) R155K, Table 8, linear inhibitors
[14] = read-out: Ki R155K, R155K variant
[15] = read-out: Ki (nM) D168A, Table 8, linear inhibitors
[16] = read-out: Ki D168A, D168A variant
[17] = read-out: Ki (nM) WT, Table 8, linear inhibitors
[18] = read-out: Ki WT, wild-type HCV NS3/4A protease

| Molecule | EC50 [1, 12] [nM] | Replicon EC50 (Fold change) D168V ([1]; Table 9) | Ki R155K (fold change) [2] | Ki [3, 13] [nM] | Ki [3, 14] [nM] | EC50 [4] [nM] | Replicon EC50 (Fold change) D168A [4] | EC50 [5] [nM] | Replicon EC50 (Fold change) R155K [5] | EC50 [6] [nM] | Replicon EC50 (Fold change) A156T [6] | EC50 [7] [nM] | Ki D168A (fold change) [8] | Ki [9, 15] [nM] | Ki [9, 16] [nM] | Ki [10, 17] [nM] | Ki [10, 18] [nM] | ring closure, isolated yield ([11]; from C=CCCCCC[C@H](NC(=O)OC(C)(C)C)C(=O)N1C[C@H](Oc2nc3cc(OC)ccc3nc2C(F)(F)F)C[C@H]1C(=O)N[C@]1(C(=O)OCC)C[C@H]1C=C, 6.7 mM, 5.0 h) [%] | EC50 ([1]; read-out: Replicon EC50 (nM) D168V, Table 9) [nM] | ring closure, isolated yield ([11]; 6.6 mM) [%] |
| --- | --- | --- | --- | --- | --- | --- | --- | --- | --- | --- | --- | --- | --- | --- | --- | --- | --- | --- | --- | --- |
| C=C[C@@H]1C[C@]1(NC(=O)[C@@H]1C[C@@H](Oc2nc3cc(OC)ccc3nc2Cl)CN1C(=O)[C@@H](NC(=O)OC1CCCC1)C(C)(C)C)C(=O)NS(=O)(=O)C1CC1 [Compound 11d, Cyclopentyl ((S)-1-((2S,4R)-4-((3-chloro-7-methoxyquinoxalin-2-yl)oxy)-2-(((1R,2S)-1-((cyclopropylsulfonyl)carbamoyl)-2-vinylcyclopropyl)carbamoyl)pyrrolidin-1-yl)-3,3-dimethyl-1-oxobutan-2-yl)carbamate] | 54 | (7.3) fold | 1.1 | 4.1 ± 0.5 | 4.1 ± 0.5 | 50 | (6.8) fold | 40 | (5.4) fold | 292 | (40) fold | 7.4 | 26 | 99 ± 10 | 99 ± 10 | 3.8 | 3.8 ± 0.6 | – | – | – |
| CCOC(=O)[C@@]12C[C@H]1/C=C\CCCCC[C@H](NC(=O)OC(C)(C)C)C(=O)N1C[C@H](Oc3nc4cc(OC)ccc4nc3C(F)(F)F)C[C@H]1C(=O)N2 | – | – | – | – | – | – | – | – | – | – | – | – | – | – | – | – | – | 70 | – | – |
| C=C[C@@H]1C[C@]1(NC(=O)[C@@H]1C[C@@H](Oc2nc3cc(OC)ccc3nc2C)CN1C(=O)[C@@H](NC(=O)OC1CCCC1)C(C)(C)C)C(=O)NS(=O)(=O)C1CC1 [Compound 11b, Cyclopentyl ((S)-1-((2S,4R)-2-(((1R,2S)-1-((cyclopropylsulfonyl)carbamoyl)-2-vinylcyclopropyl)carbamoyl)-4-((7-methoxy-3-methylquinoxalin-2-yl)oxy)pyrrolidin-1-yl)-3,3-dimethyl-1-oxobutan-2-yl)carbamate] | 150 | (15) fold | 1.0 | 9.6 ± 0.9 | 9.6 ± 0.9 | 101 | (10) fold | 48 | (4.8) fold | 164 | (16) fold | 10 | 16 | 144 ± 23 | 144 ± 23 | 9.2 ± 0.9 | 9.2 ± 0.9 | – | – | – |
| C=C[C@@H]1C[C@]1(NC(=O)[C@@H]1C[C@@H](Oc2nc3cc(OC)ccc3nc2Cl)CN1C(=O)[C@@H](NC(=O)OC(C)(C)C)C(C)(C)C)C(=O)NS(=O)(=O)C1CC1 [Compound 9d, tert-Butyl ((S)-1-((2S,4R)-4-((3-chloro-7-methoxyquinoxalin-2-yl)oxy)-2-(((1R,2S)-1-((cyclopropylsulfonyl)carbamoyl)-2-vinylcyclopropyl)carbamoyl)pyrrolidin-1-yl)-3,3-dimethyl-1-oxobutan-2-yl)carbamate] | 12 to 38 | (1.8) fold | 0.3 | 2.2 ± 0.4 | 2.2 ± 0.4 | – | (5.8) fold | 10 | (1.5) fold | 107 | (16) fold | 6.6 | 16 | 128 ± 16 | 128 ± 16 | 7.8 ± 1.1 | 7.8 ± 1.1 | – | 12 | – |
| tert-Butyl 42R,6S,13aS,14aR,16aS,Z)-14a-((cyclopropylsulfonyl)carbamoyl)-2-((3-isopropyl-7-methoxyquinoxalin-2-yl)oxy)-5,16-dioxo-1,2,3,5,6,7,8,9,10,11,13a,14,14a,15,16,16a-hexadecahydrocyclopropa[e]pyrrolo[1,2-a][1,4]diazacyclopentadecin-6-yl)carbamate | – | – | – | – | – | – | – | – | – | – | – | – | – | – | – | – | – | – | – | 58 |
| C=C[C@@H]1C[C@]1(NC(=O)[C@@H]1C[C@@H](Oc2nc3cc(OC)ccc3nc2CC)CN1C(=O)[C@@H](NC(=O)OC(C)(C)C)C(C)(C)C)C(=O)NS(=O)(=O)C1CC1 [Compound 3, tert-Butyl ((S)-1-((2S,4R)-2-(((1R,2S)-1-((cyclopropylsulfonyl)carbamoyl)-2-vinylcyclopropyl)carbamoyl)-4-((3-ethyl-7-methoxyquinoxalin-2-yl)oxy)pyrrolidin-1-yl)-3,3-dimethyl-1-oxobutan-2-yl)carbamate] | > 500 | (>21) fold | 0.9 | 17 ± 2.3 | 17 ± 2.3 | > 500 | (>21) fold | 50 | (2.1) fold | 73 | (3.0) fold | 24 | 34 | 642 ± 101 | 642 ± 101 | 19 | 19 ± 2.7 | – | – | – |
